Test results as given in article doi:10.1101/2024.02.15.580468v1, “Morphing Cholinesterase Inhibitor Amiridine into Multipotent Drugs for the Treatment of Alzheimer’s Disease” (biorxiv, 2024).
Read-outs that look alike come from different tables or passages of the source.

Key:
[1] = target: T1, hAChE (human recombinant acetylcholinesterase) (Homo sapiens, UniProt P22303); assay: biochemical; design: modified Ellman assay, cholinesterase activity, absorbance at 412 nm
T1 construct: gene ACHE; recombinant enzyme, purchased from Sigma-Aldrich
Experimental: (§1) The inhibitory activities of 5–7 and all the reference compounds were determined using modified Ellman’s method against human recombinant AChE (hAChE, E.C. 3.1.1.7, purchased from Sigma-Aldrich, Prague, Czech Republic) and human plasmatic BChE (hBChE, E.C. 3.1.1.8, purchased from Sigma-Aldrich, Prague, Czech Republic). The results are expressed as IC50 (the concentration of the compound that is required to reduce 50% of cholinesterase activity). Other used compounds – phosphate buffer solution (PBS, pH = 7.4), 5,5’-dithio-bis(2-nitrobenzoic) acid (Ellman’s reagent, DTNB), acetylthiocholine (ATCh) and butyrylthiocholine (BTCh) were also commercially available and were purchased from Sigma-Aldrich (Prague, Czech Republic). During the measurement, 96-well microplates from polystyrene (ThermoFisher Scientific, Waltham, MA, USA) were used. The solutions of corresponding enzyme in PBS were prepared up to final activity 0.002 U/µL. The assay medium (100 µL) consisted of cholinesterase (10 µL), DTNB (20 µL of 0.01 M solution) and PBS (40 µL of 0.1 M solution). The solutions of the tested compounds (10 µL of different concentrations) were pre- incubated for 5 minutes in the assay medium and then solution of substrate (20 µL of 0.01 M ATCh or BTCh iodide solution) was added to initiate the reaction. The increase of absorbance was measured at 412 nm using Multimode microplate reader Synergy 2 (BioTek Inc., Winooski, VT, USA). For the calculation of the resulting measured activity (the percentage of inhibition I) following formula was used: [drawing 1] where ΔAi indicates absorbance change provided by adequate enzyme exposed to corresponding inhibitor and ΔA0 indicates absorbance change when a solution of PBS was added instead of a solution of inhibitor. Software Microsoft Excel (Redmont, WA, USA) and GraphPad Prism version 5.02 for Windows (GraphPad Software, San Diego, CA, USA) were used for the statistical data evaluation. ChEs are enzymes responsible for the hydrolysis and metabolism of various endogenous and exogenous substrates, that are broadly studied in association with disease conditions like myasthenia gravis or AD. The primary attention in the development of AD drugs has been paid to AChE inhibitors. Nevertheless, there is growing interest in nonselective or BChE-selective inhibitors due to the compensatory role of BChE when AChE levels are depleted during the progression of AD [23]. Selective BChE inhibitors may be beneficial for patients in moderate-to-severe stages of AD [23, 24]. […] Accordingly, we assessed the inhibition activities of these novel compounds against human recombinant AChE (hAChE) and human serum BChE (hBChE) following a modified spectrophotometric protocol developed by Ellman et al.. […] Complete data are available in the Supplementary Information (Table S1), including the inhibition percentages for all derivatives. Amiridine hydrochloride (amiridine.HCl) and tacrine (THA) were used as reference compounds. […] Only a superficial structure-activity relationship for AChE inhibition can be drawn from the obtained data. […] The presence of any substituent on the benzothiazole core enhanced anti-AChE activity, with the best-tolerated position for the substituent being 6 for derivatives with halogen atoms (7b-d with bromine or 7g-h with [compound left out]. h

[2] = target: T2, hBChE (human serum / plasmatic butyrylcholinesterase) (Homo sapiens, UniProt P06276); assay: biochemical; design: modified Ellman assay, cholinesterase activity, absorbance at 412 nm
T2 construct: gene BCHE; native enzyme from human plasma/serum, purchased from Sigma-Aldrich
Experimental: as §1

[3] = in vitro; design: MTT viability assay, undifferentiated SH-SY5Y cells; conditions: human, undifferentiated sh-sy5y cells, read-out: SH-SY5Y IC50
Experimental: (§2) The cytotoxic profile of 5–7 was carried through the use of the MTT (3-(4,5-dimethylthiazol-2-yl)-2,5-diphenyltetrazolium bromide) assay on human neuroblastoma (SH-SY5Y) and hepatocellular carcinoma (HepG2) cell lines, following established protocols. The cytotoxicity was assessed on SH-SY5Y cells in undifferentiated and in differentiated form. The data obtained from the measurements on the undifferentiated SH-SY5Y and HepG2 cells are summarized in Table 1 for 5c-d, 7c and 7g, as well as for the reference compounds amiridine hydrochloride and THA. Additional data can be found in Supplementary Information (Table S2 and Fig. S1). The both cell lines were cultured according to ECACC recommended conditions and seeded into 96-well plates in 100 µL and density of 8000 per well. For evaluation of cytotoxicity of the differentiated form the SH-SY5Y cells also underwent 9-day differentiation protocol into mature neurons according to Riegerová et al .. The tested compounds were dissolved in DMSO (Sigma Aldrich) or in phosphate buffer saline (PBS, Sigma Aldrich) and subsequently in the growth medium - high glucose Dulbecco’s Modified Eagle’s medium (DMEM; Sigma-Aldrich, D6429). […] Then, the differentiated SH-SY5Y cells were treated with concentrations corresponding to IC50 values obtained from the cytotoxicity measurement using undifferentiated SH-SY5Y cells. Cells were exposed to a tested compound for 24 h. Then the medium was replaced by a medium containing 10 μM of MTT and cells were allowed to produce formazan for another approximately 3 h under surveillance. Thereafter, medium was aspirated and purple crystals of MTT formazan were dissolved in 100 μL DMSO under shaking. Cell viability was assessed spectrophotometrically by the amount of formazan produced. Absorbance was measured at 570 nm with 650 nm reference wavelength on Spark (Tecan Group Ltd, Switzerland). The IC50 value was then calculated from the control-subtracted triplicates using non-linear regression (four parameters) of GraphPad Prism 9 software. Final IC50 and SEM values were obtained as a mean of three independent measurements.

[4] = in vitro; design: MTT viability assay, HepG2 cells; conditions: human, hepg2 cells; read-out: HepG2 IC50
Experimental: as §2

[5] = in vitro; design: PAMPA blood-brain barrier permeability, effective permeability Pe; conditions: PAMPA-BBB Pe
From the text: page 5 / Table S2. Cytotoxicity profiles of 5–7 on SH-SY5Y cell line and predictions to BBB penetration by PAMPA results. / Pe (10^-6 cm.s^-1)

[6] = target: T2, hBChE (human serum / plasmatic butyrylcholinesterase); assay: modified Ellman assay, […] nm; type: biochemical

T2 sequence (P06276 29-602): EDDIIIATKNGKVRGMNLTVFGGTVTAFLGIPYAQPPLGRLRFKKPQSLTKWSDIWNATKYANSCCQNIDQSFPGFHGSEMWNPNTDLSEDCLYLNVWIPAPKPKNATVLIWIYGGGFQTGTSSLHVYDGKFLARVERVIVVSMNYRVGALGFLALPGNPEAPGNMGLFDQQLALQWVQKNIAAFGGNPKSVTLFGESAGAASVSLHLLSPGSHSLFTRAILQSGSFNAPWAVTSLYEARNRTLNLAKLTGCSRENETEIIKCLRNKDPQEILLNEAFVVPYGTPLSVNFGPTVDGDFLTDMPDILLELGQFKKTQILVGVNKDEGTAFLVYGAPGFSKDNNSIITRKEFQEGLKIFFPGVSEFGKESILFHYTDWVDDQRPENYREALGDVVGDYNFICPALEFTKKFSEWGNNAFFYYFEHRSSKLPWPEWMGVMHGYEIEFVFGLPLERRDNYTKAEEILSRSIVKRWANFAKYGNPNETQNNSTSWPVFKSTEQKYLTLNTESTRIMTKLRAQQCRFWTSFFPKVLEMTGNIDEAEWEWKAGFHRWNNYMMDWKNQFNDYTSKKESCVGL
T1 sequence (P22303 32-614): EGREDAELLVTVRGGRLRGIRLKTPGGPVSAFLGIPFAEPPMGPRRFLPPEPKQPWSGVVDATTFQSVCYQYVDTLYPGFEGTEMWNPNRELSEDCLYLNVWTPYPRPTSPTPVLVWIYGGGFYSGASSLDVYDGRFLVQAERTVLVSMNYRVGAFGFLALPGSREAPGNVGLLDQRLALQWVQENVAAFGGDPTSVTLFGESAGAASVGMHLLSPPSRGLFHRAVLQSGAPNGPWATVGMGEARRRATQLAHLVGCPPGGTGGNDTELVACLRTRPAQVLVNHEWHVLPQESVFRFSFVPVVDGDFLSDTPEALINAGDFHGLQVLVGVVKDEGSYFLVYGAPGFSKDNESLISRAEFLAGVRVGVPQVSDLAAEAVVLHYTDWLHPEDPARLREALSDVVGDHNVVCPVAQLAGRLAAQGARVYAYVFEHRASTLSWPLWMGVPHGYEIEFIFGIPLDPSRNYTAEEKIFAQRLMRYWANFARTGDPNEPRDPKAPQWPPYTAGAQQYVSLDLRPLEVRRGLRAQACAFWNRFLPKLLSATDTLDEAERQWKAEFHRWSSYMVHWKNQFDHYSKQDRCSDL

Question: With `Clc1nc2ccccc2s1` [7a, 2-chlorobenzothiazole] as the molecule, how does the inhibition at 1 µM [1] read?
Answer: 1.46 ± 0.17%

Question: What about the inhibition at 1 µM [2] of the same molecule?
Answer: 7.19 ± 0.91%

Question: And the CC50 at 24 h [3]?
Answer: 72.3 ± 6.89 µM

Question: What about the CC50 at 24 h [4] of the same molecule?
Answer: ≥ 200 µM

Question: And the Papp [5]?
Answer: 20.6 ± 0.44 ×10⁻⁶ cm/s

Question: With `O=C(CNc1nc2cccc([N+](=O)[O-])c2s1)Nc1c2c(nc3c1CCC3)CCCC2` [7k, N-{1H,2H,3H,5H,6H,7H,8H-cyclopenta[b]quinolin-9-yl}-2-[(7-nitro-1,3-benzothiazol-2-yl)amino]acetamide] as the molecule, how does the inhibition at 1 µM [1] read?
Answer: 9.62 ± 0.41%

Question: And the inhibition at 1 µM [2]?
Answer: 4.47 ± 0.58%

Question: And the CC50 at 24 h [3]?
Answer: 51 ± 8.56 µM

Question: What about the CC50 at 24 h [4] of the same molecule?
Answer: ≥ 200 µM

Question: What about the Papp [5] of the same molecule?
Answer: 1.12 ± 0.62 ×10⁻⁶ cm/s

Question: Which inhibition at 1 µM [1] does the source give for `N#Cc1ccc2sc(NCC(=O)Nc3c4c(nc5c3CCC5)CCCC4)nc2c1` [7e, 2-[(5-cyano-1,3-benzothiazol-2-yl)amino]-N-{1H,2H,3H,5H,6H,7H,8H-cyclopenta[b]quinolin-9-yl}acetamide] here?
Answer: 13.3 ± 0.57%

Question: What about the inhibition at 1 µM [2] of the same molecule?
Answer: 13.9 ± 0.6%

Question: And the CC50 at 24 h [3]?
Answer: 77.4 ± 4.54 µM

Question: And the CC50 at 24 h [4]?
Answer: 26.4 ± 1.82 µM

Question: And the Papp [5]?
Answer: 13.9 ± 1.26 ×10⁻⁶ cm/s

Question: With `O=C(CNc1nc2cc(Cl)ccc2s1)Nc1c2c(nc3c1CCC3)CCCC2` [7g, 2-[(5-chloro-1,3-benzothiazol-2-yl)amino]-N-{1H,2H,3H,5H,6H,7H,8H-cyclopenta[b]quinolin-9-yl}acetamide] as the molecule, how does the IC50 [6] read?
Answer: 11 ± 1.2 µM

Question: What about the inhibition at 1 µM [1] of the same molecule?
Answer: 11.9 ± 0.74%

Question: What about the inhibition at 1 µM [2] of the same molecule?
Answer: 26.5 ± 1.45%

Question: What about the CC50 at 24 h [3] of the same molecule?
Answer: 98.2 ± 5.74 µM

Question: What about the CC50 at 24 h [4] of the same molecule?
Answer: ≥ 200 µM

Question: What about the Papp [5] of the same molecule?
Answer: 2.8 ± 0.79 ×10⁻⁶ cm/s

Question: What does the source list for `CC12CC3CC(C)(C1)CC(NCC(=O)Nc1c4c(nc5c1CCC5)CCCC4)(C3)C2` [5b]?
Answer: inhibition at 1 µM [1]: 9.13 ± 0.48%; inhibition at 1 µM [2]: 18.6 ± 0.65%; CC50 at 24 h [3]: 31 ± 2.76 µM; CC50 at 24 h [4]: 19.5 ± 1.72 µM; Papp [5]: 7.63 ± 0.09 ×10⁻⁶ cm/s

Question: What does the source list for `O=C(CNc1nc2ccc(Br)cc2s1)Nc1c2c(nc3c1CCC3)CCCC2` [7b, 2-[(6-bromo-1,3-benzothiazol-2-yl)amino]-N-{1H,2H,3H,5H,6H,7H,8H-cyclopenta[b]quinolin-9-yl}acetamide]?
Answer: inhibition at 1 µM [1]: 18.5 ± 0.37%; inhibition at 1 µM [2]: 10.83 ± 0.09%; CC50 at 24 h [3]: ≥ 200 µM; CC50 at 24 h [4]: ≥ 200 µM; Papp [5]: 3.74 ± 0.36 ×10⁻⁶ cm/s

Question: What does the source list for `O=C(CNc1nc2cc([N+](=O)[O-])ccc2s1)Nc1c2c(nc3c1CCC3)CCCC2` [7j, N-{1H,2H,3H,5H,6H,7H,8H-cyclopenta[b]quinolin-9-yl}-2-[(5-nitro-1,3-benzothiazol-2-yl)amino]acetamide]?
Answer: inhibition at 1 µM [1]: 8.2 ± 0.41%; inhibition at 1 µM [2]: 8.03 ± 1.37%; CC50 at 24 h [3]: 93.7 ± 5.38 µM; CC50 at 24 h [4]: 25.83 ± 0.25 µM; Papp [5]: 1.83 ± 0.54 ×10⁻⁶ cm/s

Question: For `CSc1ccc2nc(NCC(=O)Nc3c4c(nc5c3CCC5)CCCC4)sc2c1` [7l, N-{1H,2H,3H,5H,6H,7H,8H-cyclopenta[b]quinolin-9-yl}-2-{[6-(methylsulfanyl)-1,3-benzothiazol-2-yl]amino}acetamide], which inhibition at 1 µM [1] is on record?
Answer: 7.56 ± 0.38%

Question: And the inhibition at 1 µM [2]?
Answer: 6.05 ± 1.77%

Question: And the CC50 at 24 h [3]?
Answer: 173 ± 17.6 µM

Question: What about the CC50 at 24 h [4] of the same molecule?
Answer: ≥ 200 µM

Question: What about the Papp [5] of the same molecule?
Answer: 2.65 ± 0.01 ×10⁻⁶ cm/s

Question: Which results are given for `O=C(CNc1nc2ccc([N+](=O)[O-])cc2s1)Nc1c2c(nc3c1CCC3)CCCC2` [7i, N-{1H,2H,3H,5H,6H,7H,8H-cyclopenta[b]quinolin-9-yl}-2-[(6-nitro-1,3-benzothiazol-2-yl)amino]acetamide]?
Answer: inhibition at 1 µM [1]: 7.98 ± 0.99%; inhibition at 1 µM [2]: 0.93 ± 0.08%; CC50 at 24 h [3]: 91.3 ± 11 µM; CC50 at 24 h [4]: ≥ 200 µM; Papp [5]: 4.89 ± 1.5 ×10⁻⁶ cm/s

Question: Which inhibition at 1 µM [1] does the source give for `O=C(CNc1nc2c(Br)cccc2s1)Nc1c2c(nc3c1CCC3)CCCC2` [7d, 2-[(4-bromo-1,3-benzothiazol-2-yl)amino]-N-{1H,2H,3H,5H,6H,7H,8H-cyclopenta[b]quinolin-9-yl}acetamide] here?
Answer: 1.8 ± 0.33%

Question: And the inhibition at 1 µM [2]?
Answer: 6.73 ± 0.45%

Question: And the CC50 at 24 h [3]?
Answer: 111 ± 5.6 µM

Question: And the CC50 at 24 h [4]?
Answer: 14.5 ± 1.84 µM

Question: And the Papp [5]?
Answer: 2.62 ×10⁻⁶ cm/s

Question: For `Cc1c(C)c2c(c(C)c1O)CCC(C)(C(=O)NCC(=O)Nc1c3c(nc4c1CCC4)CCCC3)O2` (stereo not shown) [compound 6, N-{1H,2H,3H,5H,6H,7H,8H-cyclopenta[b]quinolin-9-yl}-2-[(6-hydroxy-2,5,7,8-tetramethyl-3,4-dihydro-2H-1-benzopyran-2-yl)formamido]acetamide], which inhibition at 1 µM [1] is on record?
Answer: 3.95 ± 0.25%

Question: What about the inhibition at 1 µM [2] of the same molecule?
Answer: 21.5 ± 0.94%

Question: And the CC50 at 24 h [3]?
Answer: ≥ 200 µM

Question: And the Papp [5]?
Answer: 15.9 ± 0.38 ×10⁻⁶ cm/s
